Results as given in PubChem BioAssay AID248 (DTP/NCI, 2004).
Inconclusive results and toxic doses are left out. Rule as the data show it: active = T/C of 150% or more; inactive = T/C below 125%.

Tested on: L1210 leukemia ip in BDF1 mice, survival T/C
Experiment: NCI In Vivo Anticancer Drug Screen. Data for tumor model L1210 Leukemia (intraperitoneal) in B6D2F1 (BDF1) mice
Conditions: endpoint: mean survival time, higher = longer survival
Method in brief: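 Transplanted-tumor mice were given test agent; controls received vehicle only. Survival readings from the two groups were divided (treated over control).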

[1] = dose: 12.5 mg/kg/injection, schedule: Q04DX003 (ip), vehicle: Klucel (hydroxypropylcellulose) (HPC)
[2] = dose: 25.0 mg/kg/injection, schedule: Q04DX003 (ip), vehicle: Klucel (hydroxypropylcellulose) (HPC)
[3] = dose: 50.0 mg/kg/injection, schedule: Q04DX003 (ip), vehicle: Klucel (hydroxypropylcellulose) (HPC)
[4] = dose: 100.0 mg/kg/injection, schedule: Q01DX009 (ip), vehicle: Klucel (hydroxypropylcellulose) (HPC)
[5] = dose: 100.0 mg/kg/injection, schedule: Q04DX003 (ip), vehicle: Klucel (hydroxypropylcellulose) (HPC)
[6] = dose: 200.0 mg/kg/injection, schedule: Q01DX009 (ip), vehicle: Klucel (hydroxypropylcellulose) (HPC)
[7] = dose: 400.0 mg/kg/injection, schedule: Q01DX009 (ip), vehicle: Klucel (hydroxypropylcellulose) (HPC)
[8] = dose: 200.0 mg/kg/injection, schedule: Q01DX009 (ip), vehicle: saline
[9] = dose: 400.0 mg/kg/injection, schedule: Q01DX009 (ip), vehicle: saline

Measured: T/C

O=S(=O)(O)c1ccc(N=Nc2ccc(O)c(Cl)c2)cc1
inactive: dose: 55.0 mg/kg/injection, schedule: Q01DX Z (ip), vehicle: methylcellulose (MC) 94 % of control | dose: 83.0 mg/kg/injection, schedule: Q01DX Z (ip), vehicle: methylcellulose (MC) 96 % of control | dose: 125.0 mg/kg/injection, schedule: Q01DX Z (ip), vehicle: methylcellulose (MC) 106 % of control

N#Cc1c(CSC(=N)N)sc2ccccc12
inactive: [1] 102 % of control | dose: 25.0 mg/kg/injection, schedule: Q01DX009 (ip), vehicle: Klucel (hydroxypropylcellulose) (HPC) 105 % of control | [2] 101 % of control | dose: 50.0 mg/kg/injection, schedule: Q01DX009 (ip), vehicle: Klucel (hydroxypropylcellulose) (HPC) 101 % of control | [3] 96 % of control | [4] 100 % of control | [5] 98 % of control

COc1ccc(CN2CCCN(Cc3ccc(OC)cc3)C2c2cc(Br)c(OC)c(OC)c2)cc1
inactive: dose: 100.0 mg/kg/injection, schedule: Q01DX001 (ip), vehicle: acetone 94 % of control | dose: 200.0 mg/kg/injection, schedule: Q01DX001 (ip), vehicle: acetone 94 % of control | dose: 400.0 mg/kg/injection, schedule: Q01DX001 (ip), vehicle: acetone 94 % of control

NC(=O)c1ccc[n+]([O-])c1
inactive: [4] 104 % of control | [5] 100 % of control | [6] 100 % of control | dose: 200.0 mg/kg/injection, schedule: Q04DX003 (ip), vehicle: Klucel (hydroxypropylcellulose) (HPC) 100 % of control | [7] 98 % of control | dose: 400.0 mg/kg/injection, schedule: Q04DX003 (ip), vehicle: Klucel (hydroxypropylcellulose) (HPC) 94 % of control

NNc1ccc(-c2ccccc2)cc1
inactive: dose: 75.0 mg/kg/injection, schedule: Q01DX001 (ip), vehicle: carboxymethylcellulose (CMC) 95 % of control | dose: 150.0 mg/kg/injection, schedule: Q01DX001 (ip), vehicle: carboxymethylcellulose (CMC) 92 % of control | dose: 300.0 mg/kg/injection, schedule: Q01DX001 (ip), vehicle: carboxymethylcellulose (CMC) 97 % of control

BrCCCC[P+](c1ccccc1)(c1ccccc1)c1ccccc1
inactive: [1] 95 % of control | [2] 106 % of control | dose: 50.0 mg/kg/injection, schedule: Q01DX001 (ip), vehicle: saline 107 % of control | [3] 98 % of control | dose: 100.0 mg/kg/injection, schedule: Q01DX001 (ip), vehicle: saline 110 % of control

COC(C)C/C=N/Nc1nnc(N/N=C/CC(C)OC)c2ccccc12 (stereo not given)
inactive: dose: 5.0 mg/kg/injection, schedule: Q01DX001 (ip), vehicle: carboxymethylcellulose (CMC) 96 % of control | dose: 10.0 mg/kg/injection, schedule: Q01DX001 (ip), vehicle: carboxymethylcellulose (CMC) 93 % of control

COc1ccc(CN(CCO)S(C)(=O)=O)cc1
inactive: dose: 100.0 mg/kg/injection, schedule: Q04DX003 (ip), vehicle: saline 91 % of control | [8] 96 % of control | dose: 200.0 mg/kg/injection, schedule: Q04DX003 (ip), vehicle: saline 96 % of control | [9] 88 % of control | dose: 400.0 mg/kg/injection, schedule: Q04DX003 (ip), vehicle: saline 100 % of control

CC(=O)Oc1ccc(CCN(Cc2ccc3c(c2)OCO3)C(C)=O)cc1
inactive: dose: 50.0 mg/kg/injection, schedule: Q04DX002 (ip), vehicle: Klucel (hydroxypropylcellulose) (HPC) 97 % of control | dose: 100.0 mg/kg/injection, schedule: Q04DX002 (ip), vehicle: Klucel (hydroxypropylcellulose) (HPC) 91 % of control | dose: 200.0 mg/kg/injection, schedule: Q04DX002 (ip), vehicle: Klucel (hydroxypropylcellulose) (HPC) 97 % of control

O=C(Nc1ccc([N+](=O)[O-])cc1)c1ccc([N+](=O)[O-])cc1
inactive: dose: 100.0 mg/kg/injection, schedule: Q04DX003 (ip), vehicle: saline with Tween-80 94 % of control | dose: 200.0 mg/kg/injection, schedule: Q04DX003 (ip), vehicle: saline with Tween-80 94 % of control | dose: 400.0 mg/kg/injection, schedule: Q04DX003 (ip), vehicle: saline with Tween-80 89 % of control

OCC1OC(n2c3ccccc3c3ccccc32)C(O)C(O)C1O (stereo not given)
inactive: dose: 60.0 mg/kg/injection, schedule: Q04DX002 (ip), vehicle: DMSO 108 % of control | dose: 120.0 mg/kg/injection, schedule: Q04DX002 (ip), vehicle: DMSO 102 % of control

NC(NCCN1CC1)(C(F)(F)F)C(F)(F)F
inactive: dose: 10.0 mg/kg/injection, schedule: Q04DX003 (ip), vehicle: Klucel (hydroxypropylcellulose) (HPC) 109 % of control | dose: 20.0 mg/kg/injection, schedule: Q01DX001 (ip), vehicle: Klucel (hydroxypropylcellulose) (HPC) 105 % of control | dose: 20.0 mg/kg/injection, schedule: Q04DX003 (ip), vehicle: Klucel (hydroxypropylcellulose) (HPC) 104 % of control | dose: 40.0 mg/kg/injection, schedule: Q01DX001 (ip), vehicle: Klucel (hydroxypropylcellulose) (HPC) 101 % of control | dose: 40.0 mg/kg/injection, schedule: Q04DX003 (ip), vehicle: Klucel (hydroxypropylcellulose) (HPC) 109 % of control

O=C(/C(Br)=C/c1ccccc1)c1ccccc1
inactive: dose: 50.0 mg/kg/injection, schedule: Q01DX009 (ip), vehicle: other 103 % of control | dose: 100.0 mg/kg/injection, schedule: Q01DX009 (ip), vehicle: other 105 % of control | dose: 200.0 mg/kg/injection, schedule: Q01DX009 (ip), vehicle: other 100 % of control

Cc1cc(C)c([N+](=O)[O-])c(N)n1
inactive: dose: 100.0 mg/kg/injection, schedule: Q01DX001 (ip), vehicle: Klucel (hydroxypropylcellulose) (HPC) 102 % of control | [4] 102 % of control | dose: 200.0 mg/kg/injection, schedule: Q01DX001 (ip), vehicle: Klucel (hydroxypropylcellulose) (HPC) 105 % of control | [6] 101 % of control | dose: 400.0 mg/kg/injection, schedule: Q01DX001 (ip), vehicle: Klucel (hydroxypropylcellulose) (HPC) 100 % of control | [7] 103 % of control

C=C1C(=O)CCC1C(=O)O (stereo not given)
inactive: dose: 100.0 mg/kg/injection, schedule: Q01DX009 (ip), vehicle: saline 101 % of control | [8] 110 % of control | [9] 112 % of control

S=C1NC(c2ccc(Cl)cc2)N2C(=S)NC(c3ccc(Cl)cc3)N12 (stereo not given)
inactive: dose: 100.0 mg/kg/injection, schedule: Q01DX009 (ip), vehicle: gum acacia 98 % of control | dose: 100.0 mg/kg/injection, schedule: Q04DX003 (ip), vehicle: gum acacia 104 % of control | dose: 200.0 mg/kg/injection, schedule: Q01DX009 (ip), vehicle: gum acacia 93 % of control | dose: 200.0 mg/kg/injection, schedule: Q04DX003 (ip), vehicle: gum acacia 101 % of control | dose: 400.0 mg/kg/injection, schedule: Q04DX003 (ip), vehicle: gum acacia 98 % of control

CC(C)=CCCBr
inactive: dose: 50.0 mg/kg/injection, schedule: Q01DX009 (sc), vehicle: olive oil, sesame oil, peanut oil 108 % of control | dose: 100.0 mg/kg/injection, schedule: Q01DX009 (sc), vehicle: olive oil, sesame oil, peanut oil 102 % of control | dose: 200.0 mg/kg/injection, schedule: Q01DX009 (sc), vehicle: olive oil, sesame oil, peanut oil 108 % of control

COc1ccccc1-n1c(O)c(N=Nc2ccc(Cl)cc2)c(=O)n(-c2ccc(I)cc2)c1=S
inactive: dose: 37.5 mg/kg/injection, schedule: Q01DX001 (ip), vehicle: Klucel (hydroxypropylcellulose) (HPC) 94 % of control | dose: 75.0 mg/kg/injection, schedule: Q01DX001 (ip), vehicle: Klucel (hydroxypropylcellulose) (HPC) 94 % of control | dose: 150.0 mg/kg/injection, schedule: Q01DX001 (ip), vehicle: Klucel (hydroxypropylcellulose) (HPC) 90 % of control
